Target: T1, α-synuclein (α-syn) (Homo sapiens, UniProt P37840)
T1 construct: purchased rPeptide (Watkinsville, GA)
Experiment: Thioflavin T (ThT) fluorescence assay of α-syn fibril formation
Format: biochemical
Details: α-syn 2 μM final concentration, compounds at 100 μM, average of three replicates with SEM
Procedure: Chemical and peptide source. Dimethylsulfoxide (DMSO) and thioflavin-T (ThT) were purchased from Alfa Aesar (Ward Hill, MA). Recombinant α-synuclein (α-syn) was procured from rPeptide (WatKinsville, GA). The recombinant p-tau isoform 1N4R was prepared as published previously (Fortin et al. 2021, Sui et al. 2015, Liu et al. 2020). Concerning the preparation of tau 0N4R, a bacterial expression plasmid consisting of the vector pET30a carrying a cDNA encoding the human Tau 0N4R isoform was a kind gift of Dr. Benjamin Wolozin (Boston University). E. coli stock (Rosetta BL21 E. coli (CamR) containing pET30a [0N4R tau wt] (KanR)) was grown in LB medium supplemented with kanamycin (50 μg/mL) and chloramphenicol (50 μg/mL). Protein over-expression was induced by the addition of 1 mM IPTG for ˜18 hours at 37° C., and cells were pelleted by centrifugation at 6,000 g for 15 minutes at 4° C. The cells were resuspended in lysis buffer (10 mM Hepes, pH 7.4, 50 mM NaCl, 1 mM MgCl2, 1 mM PMSF, 1× PIC, and 0.5 mM DTT) and lysed by sonication at 30 seconds “On” and 1 minute “Off” at ˜30-45% power for ˜3-5 minutes. Lysate was centrifuged at 10,000 rpm for 10 minutes at 4° C., and supernatant was transferred with 7.8 ml (total) of 3M NaCl. The lysate was incubated for 10 minutes in 80° C. water bath, then cooled for 10 minutes in an ice bath. The lysate was centrifuged at 10,000 rpm at 4° C. for 10 minutes, and the supernatant was transferred to a new tube. The supernatant was dialyzed overnight against cation exchange buffer (50 mM MES, […], 1 mM DTT, pH 6.0). The dialysate was loaded onto a HiPrep SP HP column, and proteins were eluted with a linear gradient ranging from 50 mM to 1 M NaCl. General Characterizations. ^1H and ^13C {1H} NMR spectra were recorded using a 500 MHz Bruker instrument working at a frequency of 500 MHz for ^1H and at 126 MHz for ^13C. Chemical shifts are reported in ppm using residual solvent resonances as internal reference (δ 2.50 and δ 39.51 for ^1H and ^13C in DMSO-d6, respectively). ^1H NMR data are reported as follows. b=broad, s=singlet, d=doublet, t=triplet, q=quartet, and m=multiplet. Coupling constants are given in hertz. The purity of all compounds and synthetic intermediates was judged to be 95% or better based on ^1H NMR. IR measurements were performed in a Nicolet FTIR as thin films in the Purdue Drug Discovery facility. High-resolution mass spectrometry analyses were conducted at the MSU Mass Spectrometry facility. Thioflavin fluorescence assays. […] The recombinant α-syn obtained from rPeptide has been validated with proper quality control to confirm the monomeric state of the protein. Kinetics of fibril formation have been performed using ThT as published previously.^6, 12, 13, 24 The fluorescence emission experiments were performed with the excitation and emission wavelengths set at 440 and 485 nm, respectively, with a Synergy HT multi-mode microplate reader (BioTek, Winooski, VT). Samples were measured in three replicates. Experiments were repeated three times using different α-syn stock solutions. For each time point, arbitrary units of fluorescence were calculated from the mean values normalized against the maximum value. The percentage of fluorescence intensity at the plateau phase in Table 1 was expressed as mean #SEM. Concerning the dose response curve depicted in FIG. 2, the data were plotted using GraphPad Prism. Photo-induced Cross-linking of Unmodified Proteins (PICUP) Assay. To induce oligomerization by cross-linking, α-syn (from Rpeptide, LLC) was diluted in 10 mM phosphate buffer (pH 7.4) to reach a final concentration of 50 μM. Different compounds were added to the protein solution at a final concentration of 50 μM, resulting in a molar ratio of 1:1. PICUP assays were performed with the following controls: samples without light exposition, without Ru(bpy) or ammonium persulfate, and without compound (i.e., 0.125% DMSO). […]

Compound | % ThT intensity (100 μM), maximum ThT intensity in percentage
1,1′-(1,4-phenylene)bis(3-cyclohexylthiourea) [Compound 20] | 20 85% ± <15
1,1′-(1,4-phenylene)bis(3-(pyridin-4-yl)urea) [Compound 19] | 19 41.6 ± 3.6%

Same assay, conditions: α-syn 2 μM final concentration, compounds at 100 μM, average of three replicates with SEM; read-out: % ThT intensity (100 μM), maximum ThT intensity in percentage

Compound | remaining activity at 100 µM [%]
S=C(Nc1ccccc1)Nc1ccc(NC(=S)Nc2ccccc2)cc1 [Compound 10, 1-phenyl-3-{4-[(phenylcarbamothioyl)amino]phenyl}thiourea] | 94
Cc1c(NC(=O)Nc2ccc(N3CCOCC3)cc2)cccc1NC(=O)Nc1ccc(N2CCOCC2)cc1 [Compound 22, 1,1′-(2-methyl-1,3-phenylene)bis(3-(4-morpholinophenyl)urea)] | 93.5
O=C(Nc1cccc2[nH]ccc12)N[C@H]1CC[C@H](NC(=O)Nc2cccc3[nH]ccc23)CC1 [Compound 21, 1,1′-((1R,4R)-cyclohexane-1,4-diyl)bis(3-(1H-indol-4-yl)urea)] | 91.6
O=C(Nc1ccccc1)Nc1ccc(NC(=O)Nc2ccccc2)cc1 [Compound 9, 1-phenyl-3-{4-[(phenylcarbamoyl)amino]phenyl}urea] | 93.5

Same assay, conditions: α-syn 6 μM final concentration, compounds at 100 μM, average of three replicates

Compound | maximum thioflavin T (ThT) intensity in percentage
Cc1c(NC(=O)Nc2ccc3[nH]ccc3c2)cccc1NC(=O)Nc1ccc2[nH]ccc2c1 [Compound 17, 3-(1H-indol-5-yl)-1-(3-{[(1H-indol-5-yl)carbamoyl]amino}-2-methylphenyl)urea] | Compound 17 116.4 ± 8.8%
O=C(Nc1cccc(NC(=O)Nc2ccc3cc[nH]c3c2)c1)Nc1ccc2cc[nH]c2c1 [Compound 14, 3-(1H-indol-6-yl)-1-(3-{[(1H-indol-6-yl)carbamoyl]amino}phenyl)urea] | Compound 14 12.4 ± 1.8%
Cc1c(NC(=O)Nc2cccc3[nH]ccc23)cccc1NC(=O)Nc1cccc2[nH]ccc12 [Compound 16, 3-(1H-indol-4-yl)-1-(3-{[(1H-indol-4-yl)carbamoyl]amino}-2-methylphenyl)urea] | Compound 16 23.4 ± 0.2%
Cc1c(NC(=O)Nc2ccc3cc[nH]c3c2)cccc1NC(=O)Nc1ccc2cc[nH]c2c1 [Compound 18, 3-(1H-indol-6-yl)-1-(3-{[(1H-indol-6-yl)carbamoyl]amino}-2-methylphenyl)urea] | Compound 18 49.7 ± 5.0%
O=C(Nc1cccc(NC(=O)Nc2ccc3[nH]ccc3c2)c1)Nc1ccc2[nH]ccc2c1 [Compound 13, 3-(1H-indol-5-yl)-1-(3-{[(1H-indol-5-yl)carbamoyl]amino}phenyl)urea] | Compound 13 27.7 ± 2.9%
O=C(Nc1cccc(NC(=O)Nc2cccc3[nH]ccc23)c1)Nc1cccc2[nH]ccc12 [Compound 12, 3-(1H-indol-4-yl)-1-(3-{[(1H-indol-4-yl)carbamoyl]amino}phenyl)urea] | Compound 12 8.8 ± 0.2%
O=C(Nc1ccccc1)Nc1cccc(NC(=O)Nc2ccccc2)c1 [Compound 11, 3-phenyl-1-{3-[(phenylcarbamoyl)amino]phenyl}urea] | Compound 11 108.6 ± 4.7%
O=C(Nc1cccc(NC(=O)Nc2cccc3[nH]ccc23)c1)Nc1cccc2[nH]ccc12 [Compound 15, 3-(1H-indol-4-yl)-1-(3-{[(1H-indol-4-yl)carbamoyl]amino}phenyl)urea] | Compound 15 28.1 ± 2.1%

Target: T1, α-synuclein (α-syn)
Experiment: PICUP assay of α-syn oligomer formation
Format: biochemical
Details: α-syn 60 μM, compound 50 μM (~molar ratio 1:1)
Procedure: Chemical and peptide source. Dimethylsulfoxide (DMSO) and thioflavin-T (ThT) were purchased from Alfa Aesar (Ward Hill, MA). Recombinant α-synuclein (α-syn) was procured from rPeptide (WatKinsville, GA). The recombinant p-tau isoform 1N4R was prepared as published previously (Fortin et al. 2021, Sui et al. 2015, Liu et al. 2020). Concerning the preparation of tau 0N4R, a bacterial expression plasmid consisting of the vector pET30a carrying a cDNA encoding the human Tau 0N4R isoform was a kind gift of Dr. Benjamin Wolozin (Boston University). E. coli stock (Rosetta BL21 E. coli (CamR) containing pET30a [0N4R tau wt] (KanR)) was grown in LB medium supplemented with kanamycin (50 μg/mL) and chloramphenicol (50 μg/mL). Protein over-expression was induced by the addition of 1 mM IPTG for ˜18 hours at 37° C., and cells were pelleted by centrifugation at 6,000 g for 15 minutes at 4° C. The cells were resuspended in lysis buffer (10 mM Hepes, pH 7.4, 50 mM NaCl, 1 mM MgCl2, 1 mM PMSF, 1× PIC, and 0.5 mM DTT) and lysed by sonication at 30 seconds “On” and 1 minute “Off” at ˜30-45% power for ˜3-5 minutes. Lysate was centrifuged at 10,000 rpm for 10 minutes at 4° C., and supernatant was transferred with 7.8 ml (total) of 3M NaCl. The lysate was incubated for 10 minutes in 80° C. water bath, then cooled for 10 minutes in an ice bath. The lysate was centrifuged at 10,000 rpm at 4° C. for 10 minutes, and the supernatant was transferred to a new tube. The supernatant was dialyzed overnight against cation exchange buffer (50 mM MES, […], 1 mM DTT, pH 6.0). The dialysate was loaded onto a HiPrep SP HP column, and proteins were eluted with a linear gradient ranging from 50 mM to 1 M NaCl. General Characterizations. ^1H and ^13C {1H} NMR spectra were recorded using a 500 MHz Bruker instrument working at a frequency of 500 MHz for ^1H and at 126 MHz for ^13C. Chemical shifts are reported in ppm using residual solvent resonances as internal reference (δ 2.50 and δ 39.51 for ^1H and ^13C in DMSO-d6, respectively). ^1H NMR data are reported as follows. b=broad, s=singlet, d=doublet, t=triplet, q=quartet, and m=multiplet. Coupling constants are given in hertz. The purity of all compounds and synthetic intermediates was judged to be 95% or better based on ^1H NMR. IR measurements were performed in a Nicolet FTIR as thin films in the Purdue Drug Discovery facility. High-resolution mass spectrometry analyses were conducted at the MSU Mass Spectrometry facility. Thioflavin fluorescence assays. Thioflavin fluorescence assays were used to monitor fibril formation of commercial recombinant α-syn at a final concentration of 2 μM and treated with control DMSO and different compounds. The recombinant α-syn obtained from rPeptide has been validated with proper quality control to confirm the monomeric state of the protein. Kinetics of fibril formation have been performed using ThT as published previously.^6, 12, 13, 24 The fluorescence emission experiments were performed with the excitation and emission wavelengths set at 440 and 485 nm, respectively, with a Synergy HT multi-mode microplate reader (BioTek, Winooski, VT). Samples were measured in three replicates. Experiments were repeated three times using different α-syn stock solutions. For each time point, arbitrary units of fluorescence were calculated from the mean values normalized against the maximum value. The percentage of fluorescence intensity at the plateau phase in Table 1 was expressed as mean #SEM. Concerning the dose response curve depicted in FIG. 2, the data were plotted using GraphPad Prism. Photo-induced Cross-linking of Unmodified Proteins (PICUP) Assay. […] Different compounds were added to the protein solution at a final concentration of 50 μM, resulting in a molar ratio of 1:1. PICUP assays were performed with the following controls: samples without light exposition, without Ru(bpy) or ammonium persulfate, and without compound (i.e., 0.125% DMSO). […]

Compound | effect on α-syn oligomer formation (high molecular weight bands) by PICUP
Nc1ccc2cc[nH]c2c1 [6-aminoindole, reference compound] | abrogated the formation of high molecular weight bands
Nc1cccc2[nH]ccc12 [4-aminoindole, reference compound] | abrogated the formation of high molecular weight bands
Nc1ccc2[nH]ccc2c1 [5-aminoindole, reference compound] | abrogated the formation of high molecular weight bands

Reference: patent US20250241890A1, “1,4-DIUREAS AND 1,4-DITHIOUREAS AND USES THEREOF” (Purdue Research Foundation, priority 2024, published 2025)
